Test results reported in BindingDB's records for doi:10.1016/j.bmcl.2009.03.136 (Central Drug Research Institute, 2009).

Experiment: Inhibition of rat intestinal alpha-glucosidase

IC50: 51.5 µM
SMILES: COc1ccc(C=CC(=O)C[C@@H]2O[C@H](CO)[C@@H](O)[C@H](O)[C@H]2O)cc1OC [(E)-4-(3,4-dimethoxyphenyl)-1-((2S,3R,4R,5S,6R)-3,4,5-trihydroxy-6-(hydroxymethyl)tetrahydro-2H-pyran-2-yl)but-3-en-2-one]
